# Results as given in PMC7911889 (Viruses, 2021).
# Biological target: SARS-CoV-2 3CL^pro (Severe acute respiratory syndrome coronavirus 2, UniProt P0DTD1)
# Assay type: cell-based
Compound,Effect on luciferase reporter activity / 3CL^pro inhibition (in words),"EC50 (read-out: EC50, SARS-CoV-2 3CLpro luciferase complementation assay) [µM]"
CC(NC(=O)[C@H](Cc1ccccc1)NC(=O)OCc1ccccc1)C(=O)CF (stereo partly drawn) [Z-FA-FMK],clearly inhibited SARS-CoV-2 3CL^pro,26.3
CC(C)(C)NC(=O)N[C@H](C(=O)N1C[C@H]2[C@@H]([C@H]1C(=O)NC(CC1CCC1)C(=O)C(N)=O)C2(C)C)C(C)(C)C (stereo partly drawn) [Boceprevir],clearly inhibited SARS-CoV-2 3CL^pro,–
